{"source": "patent US11833225B2", "about": "“Methods and compositions for efficient gene deletion” (CRISPR Therapeutics AG, priority 2018, dated 2023)", "molecules": {"B1": {"name": "HPFH5-1: 3′ gRNA targeting the HPFH5 locus, SEQ ID NO: 2, used with Cas9 protein (nucleic acid)", "guide": "AUUUUUCUUAUUCAAUACCUGUUUUAGAGCUAGAAAUAGCAAGUUAAAAUAAGGCUAGUCCGUUAUCAACUUGAAAAAGUGGCACCGAGUCGGUGCUUUU", "modifications": "listed as RNA, chemistry not given here"}, "B2": {"name": "HPFH5-D: 5′ gRNA targeting the HPFH5 locus, SEQ ID NO: 6, used with Cas9 protein (nucleic acid)", "guide": "CUGUUGGUUUCAGAGCAGGUGUUUUAGAGCUAGAAAUAGCAAGUUAAAAUAAGGCUAGUCCGUUAUCAACUUGAAAAAGUGGCACCGAGUCGGUGCUUUU", "modifications": "listed as RNA, chemistry not given here"}, "B3": {"name": "HPFH5-5: 3′ gRNA targeting the HPFH5 locus, SEQ ID NO: 4, used with Cas9 protein (nucleic acid)", "guide": "CUCCCCCACUCACAGUGACCGUUUUAGAGCUAGAAAUAGCAAGUUAAAAUAAGGCUAGUCCGUUAUCAACUUGAAAAAGUGGCACCGAGUCGGUGCUUUU", "modifications": "listed as RNA, chemistry not given here"}}, "assay_type_in_all_cases": "cell-based, human", "key": {"HPFH5 [1]": {"test_system": "HPFH5", "assay": "HPFH5 deletion frequency by droplet digital PCR (ddPCR) in edited CD34+ hHSPCs", "settings": "increased from 30% without inhibitor, dose-dependent, 0.3125-5 μM; Cas9 + dual gRNAs; 48 hours post electroporation", "description": "Mobilized human peripheral blood (mPB) CD34+ cells from three independent human donors were cultured in serum free CellGro® media including 100 ng/ml recombinant human stem cell factor (SCF), 100 ng/ml recombinant human Flt 3-Ligand (FLT3L), and 100 ng/ml Thrombopoietin (TPO). 100,000 cells per condition were electroporated using Lonza Amaxa 4D electroporator without any CRISPR/Cas9 editing components as a negative control (mock electroporation sample), with HPFH5-1+HPFH5-D sgRNAs and Cas9 protein (1+D), or with HPFH5-5+HPFH5-D sgRNAs and Cas9 protein (5+D). The recombinant S. pyogenes Cas9 protein was flanked by two SV40 nuclear localization sequences (NLSs). These experiments were performed using a ribonucleoprotein (RNP) 1:1 weight ratio of gRNA to Cas9.\nThe deletion frequency was determined by droplet digital PCR (ddPCR) two days after electroporation for each cell population (i.e., mock, 1+D, and 5+D).\nDual gRNAs (HPFH5-1 and HPFH-D, or HPFH5-5 and HPFH-D), as well as Cas9 protein, were also titrated in CD34+ hHSPCs. […]\nThe deletion frequency was determined by droplet digital PCR (ddPCR) two days after electroporation for each of the cells electroporated with HPFH5-1+HPFH5-D gRNAs, or cells electroporated with HPFH5-5+HPFH5-D gRNAs."}, "CD34+ hHSPCs [2]": {"test_system": "CD34+ hHSPCs", "assay": "Cell viability by Trypan blue", "description": "Cell viability was also assessed using Trypan blue, a standard method for detecting hematopoietic stem cell viability."}, "CD34+ hHSPCs [3]": {"test_system": "CD34+ hHSPCs", "assay": "Cell proliferation (fold growth) by hemocytometer counting", "description": "Cell proliferation was also assessed using a cell counting device (hemocytometer)."}, "HPFH5 [4]": {"test_system": "HPFH5", "assay": "Tracking of Indels by Decomposition (TIDE), single gRNA indel and MMEJ species", "description": "Tracking of Indels by Decomposition (TIDE) was utilized to determine if treatment with Nu7441 results in increased single gRNA indels as a result of NHEJ inhibition. This technology precisely determines the spectrum and frequency of indels and MMEJ species generated by single HPFH5-1 gRNA or HPFH5-D gRNAs in the presence of Nu7441 by comparing the results of standard PCR reactions and Sanger sequencing reactions. Cells were electroporated with 1.5 μg Cas and 1.5 μg HPFH5-D or 1.5 μg HPFH5-1 or no gRNA. Cells were treated with 0, 0.625 μM, 1.25 μM, 2.5 μM, or 5 μM Nu7441."}, "HPFH5 [5]": {"test_system": "HPFH5", "assay": "Colony forming assay (CFU), clonal editing analysed by ddPCR", "description": "The effects of Nu7441 on CRISPR-Cas9 gene editing using the dual gRNA approach (HPFH5-1 and HPFH5-D) was measured using a colony forming assay (CFU). CFU assay is an in vitro cellular assay that measures the proliferation and differentiation potential of human HSPCs. Following electroporation with dual gRNAs/Cas9 and treatment with Nu7441 (2.5 μM), CD34+ hHSPCs were diluted and plated in suspension in the presence of methylcellulose to promote stem cell differentiation. After 14 days, colonies grown from single erythroid-lineage HSPCs were analyzed for gene editing by ddPCR (Table 3)."}, "CCR5 gene": {"test_system": "CCR5 gene", "assay": "CCR5 deletion frequency by ddPCR in edited CD34+ cells", "from_the_text": "The C-C chemokine receptor type 5 (CCR5) is a key player in HIV infection due to its major involvement in the infection process. A limited number of people harbor a genomic 32-bp deletion in the CCR5 gene ([…]), leading to expression of a truncated gene product that provides resistance to HIV-1 infection in individuals homozygous for this mutation. Dual gRNAs were designed to target this region of the CCR5 gene. FIG. 8 diagrams the CCR5 gene and the location of TB48 gRNA and TB7 gRNA target sites (bordering a 735 bp deletion).\nHuman peripheral blood CD34+ cells were cultured and as electroporated with Cas9 and the two gRNAs essentially as described above in Example 1. Nu7441 was delivered to the cells (0, 1.25, 2.5, 5 μM) immediately after electroporation. Deletion efficiency was determined by ddPCR two days after electroporation.\nAdditional gRNAs were designed to delete larger segments from CCR5, i.e., TB74 and TB 25 for a 5700 bp deletion, and TB48 and TB25 for a 2672 bp deletion (FIG. 10). The gRNAs (and Cas9) were introduced at two dose levels (0.75 or 1.5 μg each) and cells were exposed to 0, 2.5, or 5 μM Nu7441.\nAnother DNA-PK inhibitor, M3814, was tested to determine whether deletions were increased in its presence. Populations of newly electroporated cells were exposed to four concentrations of M3814 ranging from 0.078 μM to 0.625 μM."}, "HPFH5 [6]": {"test_system": "HPFH5", "assay": "Single gRNA and Cas9 titration, single guide editing percentage in CD34+ hHSPCs", "settings": "48 hour post-electroporation", "from_the_text": "Single HPFH5-1, HPFH5-5 and HPFH5-D gRNAs, as well as Cas9 protein, were titrated in CD34+ hHSPCs to determine the effects on deletion efficiency."}, "[7]": {"settings": "HPFH5-1 + HPFH5-D gRNAs/Cas9 + 2.5 μM Nu7441"}, "[8]": {"settings": "HPFH5-1 + HPFH5-D gRNAs/Cas9 + 2.5 μM Nu7441, colonies after 14 days"}}, "note": "Where “and” joins values, the source holds several entries; their conditions need not be identical. Identical values can stand only once.", "data": [{"molecule": "O=c1cc(N2CCOCC2)oc2c(-c3cccc4c3sc3ccccc34)cccc12", "note": "[Nu7441, 8-(4-dibenzothienyl)-2-(4-morpholinyl)-4H-1-benzopyran-4-one]", "values": [{"measurement": "HPFH5 deletion efficiency reached with Nu7441", "setting": "HPFH5 [1]", "result": "45% and 40%"}, {"measurement": "cell viability", "setting": "CD34+ hHSPCs [2]; CCR5 editing with TB48 + TB7 gRNAs, highest concentration (5 μM)", "result": "decreased slightly"}, {"measurement": "cell viability", "setting": "CD34+ hHSPCs [2]; concentrations of less than 5 μM, 48 hours post electroporation, HPFH5 dual gRNAs", "result": "did not adversely affect cell viability"}, {"measurement": "cell viability", "setting": "CD34+ hHSPCs [2]; highest dose 5 μM, HPFH5 dual gRNAs", "result": "slightly reduced"}, {"measurement": "cell proliferation (fold growth)", "setting": "CD34+ hHSPCs [3]; concentrations of less than 5 μM, 48 hours post electroporation", "result": "did not adversely affect cell proliferation"}, {"measurement": "cell proliferation", "setting": "CD34+ hHSPCs [3]; highest concentration (5 μM)", "result": "reduced"}, {"measurement": "potential microhomology-mediated end joining (MMEJ) species", "setting": "HPFH5 [4]; Cas9 and HPFH5 gRNA", "result": "increased"}, {"measurement": "effect on single guide editing (indel frequency)", "setting": "HPFH5 [4]; HPFH5-1 gRNA 1.5 μg + Cas9 1.5 μg, 0.625-5 μM", "result": "not major effects"}, {"measurement": "effect on indel frequency", "setting": "HPFH5 [4]; HPFH5-D gRNA 1.5 μg + Cas9 1.5 μg, higher concentrations", "result": "increased indel frequency"}, {"measurement": "number of wild-type sequences in HPFH5 relative to untreated cells", "setting": "HPFH5 [4]; HPFH5-D gRNA, 5 μM", "result": "decrease"}, {"measurement": "percentage of 10-15 base pair deletions relative to untreated cells", "setting": "HPFH5 [4]; HPFH5-D gRNA, 5 μM", "result": "increase"}, {"measurement": "increase of percentage of HPFH5 heterozygotes relative to untreated cells", "setting": "HPFH5 [5]; 2.5 μM Nu7441", "result": 3, "unit": "fold"}, {"measurement": "% Alleles edited from clones", "setting": "HPFH5 [5]; [7]", "result": 40, "unit": "%"}, {"measurement": "% Edited cells", "setting": "HPFH5 [5]; [7]", "result": 63, "unit": "%"}, {"measurement": "Bulk editing from ddPCR", "setting": "HPFH5 [5]; [7]", "result": 43, "unit": "%"}, {"measurement": "% Heterozygotes", "setting": "HPFH5 [5]; [8]", "result": 46.2, "unit": "%"}, {"measurement": "% Homozygotes", "setting": "HPFH5 [5]; [8]", "result": 17.3, "unit": "%"}, {"measurement": "% WT", "setting": "HPFH5 [5]; [8]", "result": 36.5, "unit": "%"}, {"measurement": "# Edited alleles", "setting": "HPFH5 [5]; HPFH5-1 + HPFH5-D gRNAs/Cas9 + 2.5 μM Nu7441, of 104 total alleles (52 clones)", "result": 42}, {"measurement": "increase of number of alleles edited from clones", "setting": "HPFH5 [5]; in the presence of Nu7441 (2.5 μM)", "result": 2, "unit": "fold"}, {"measurement": "frequency of deletion in CCR5", "setting": "CCR5 gene; TB48 + TB7 gRNAs (735 bp deletion), 0, 1.25, 2.5, 5 μM, two days after electroporation", "result": "increased the frequency of deletion in CCR5 in a dose-dependent manner"}, {"measurement": "increase of percent of deletions in CCR5", "setting": "CCR5 gene; TB48 + TB7 gRNAs, highest dose (5 μM)", "result": "more than two-fold"}, {"measurement": "increase of the percent of deletions in CCR5", "setting": "CCR5 gene; TB74 + TB25 (5700 bp) and TB48 + TB25 (2672 bp) gRNAs, 0.75 or 1.5 μg each, 2.5 or 5 μM, all conditions", "result": "20-70%"}]}, {"molecule": "COc1ccc([C@@H](O)c2cc(-c3ncnc4cc(N5CCOCC5)ccc34)c(F)cc2Cl)nn1", "note": "[M3814, (S)-(2-chloro-4-fluoro-5-(7-morpholinoquinazolin-4-yl)phenyl)(6-methoxypyridazin-3-yl)methanol]", "values": [{"measurement": "percentage of deletions in CCR5", "setting": "CCR5 gene; four concentrations from 0.078 μM to 0.625 μM, TB74+TB25 or TB48+TB25 gRNAs, 48 hours post electroporation", "result": "increased in a dose-dependent manner"}, {"measurement": "percentage increase in deletions in CCR5 compared with Nu7441", "setting": "CCR5 gene; highest concentration (0.625 μM)", "result": "about the same percentage increase in deletions as Nu7441"}]}, {"molecule": "B1", "values": [{"measurement": "% Single Guide Editing", "setting": "HPFH5 [6]; gRNA 1 μg, Cas9 1 μg", "result": 35.6, "unit": "%"}, {"measurement": "% Single Guide Editing", "setting": "HPFH5 [6]; gRNA 2 μg, Cas9 2 μg", "result": 62.9, "unit": "%"}, {"measurement": "% Single Guide Editing", "setting": "HPFH5 [6]; gRNA 3 μg, Cas9 3 μg", "result": 72.1, "unit": "%"}, {"measurement": "% Single Guide Editing", "setting": "HPFH5 [6]; gRNA 4 μg, Cas9 4 μg", "result": 75.7, "unit": "%"}]}, {"molecule": "B2", "values": [{"measurement": "% Single Guide Editing", "setting": "HPFH5 [6]; gRNA 1 μg, Cas9 1 μg", "result": 20.8, "unit": "%"}, {"measurement": "% Single Guide Editing", "setting": "HPFH5 [6]; gRNA 2 μg, Cas9 2 μg", "result": 61.4, "unit": "%"}, {"measurement": "% Single Guide Editing", "setting": "HPFH5 [6]; gRNA 3 μg, Cas9 3 μg", "result": 70.9, "unit": "%"}, {"measurement": "% Single Guide Editing", "setting": "HPFH5 [6]; gRNA 4 μg, Cas9 4 μg", "result": 80.4, "unit": "%"}]}, {"molecule": "B3", "values": [{"measurement": "% Single Guide Editing", "setting": "HPFH5 [6]; gRNA 1 μg, Cas9 1 μg", "result": 40.5, "unit": "%"}, {"measurement": "% Single Guide Editing", "setting": "HPFH5 [6]; gRNA 2 μg, Cas9 2 μg", "result": 56.5, "unit": "%"}, {"measurement": "% Single Guide Editing", "setting": "HPFH5 [6]; gRNA 3 μg, Cas9 3 μg", "result": 60.3, "unit": "%"}, {"measurement": "% Single Guide Editing", "setting": "HPFH5 [6]; gRNA 4 μg, Cas9 4 μg", "result": 66.3, "unit": "%"}]}]}
